What was measured:
Format in all cases: in vivo
[1] = tested on: Myzus persicae; experiment: Myzus persicae leaf dip test (capsicum leaves, third instar nymphs); details: foliar, 72 h after release, dead and moribund combined, compared to untreated control, read-out: percent mortality
[2] = tested on: Bemisia tabaci; experiment: Bemisia tabaci leaf dip test (brinjal leaves, whitefly adults); details: foliar, 72 h after release, dead and moribund combined, compared to untreated control, read-out: percent mortality
Procedure: The leaf dip method was used for testing, wherein the required quantity of the compound was weighed and dissolved in a tube containing a solvent solution. The tube was put on a vortex at 2000 rpm for 90 min for proper mixing and then the mixture was diluted with a 0.01% Triton-X solution to the desired test concentration. Brinjal leaves were dipped in the compound solution for 10 seconds, shade dried for 20 min and then placed, with the abaxial side of the leaf up, on 4 ml of a 1% agar-agar solution in respective container caps. Known numbers of freshly emerged whitefly adults were collected, using a modified aspirator, and released into a perforated container in which the cap containing the treated leaf was placed. The containers were kept in a plant growth chamber at a temperature of 25° C. and a relative humidity of 70%. Observations on dead, moribund and alive adults were recorded 72 h after the release. Percent mortality was calculated by combining dead and moribund adults and comparing the result to the one of the untreated control. The compounds 32 53 58 79 80 81 82 84 87 88 89 94 95 96 101 102 103 104 105 106 107 108 109 112 113 114 115 116 117 118 119 120 123 124 125 126 127 130 135 138 139 140 144 145 147 150 154 156 158 159 164 167 168 169 170 171 188 189 191 198 199 200 201 202 206 207 208 209 210 213 216 223 224 225 227 228 231 232 233 234 235 236 238 242 243 244 246 and 247 recorded≥70 percent mortality @ 300 PPM.

[3] = tested on: Nilaparvata lugens; experiment: Nilaparvata lugens seedling dip test (paddy seedlings, third instar nymphs); details: 72 h after release, dead and moribund combined, compared to untreated control, read-out: percent mortality

Measured: mortality at 300 ppm

O=c1nc2n(Cc3cnc(Cl)nc3)cccc-2c(=O)n1-c1cccc(Br)c1 [Compound 231, 3-(3-bromophenyl)-8-((2-chloropyrimidin-5-yl)methyl)pyrido[2,3-d]pyrimidine-2,4(3H,8H)-dione]
≥ 70%: all assays above

O=c1c2cccn(Cc3cnc(Cl)nc3)c-2nc(=S)n1-c1ccc(Cl)cc1 [Compound 210, 3-(4-chlorophenyl)-8-((2-chloropyrimidin-5-yl)methyl)-2-thioxo-2,8-dihydropyrido[2,3-d]pyrimidin-4(3H)-one]
≥ 70%: all assays above

O=c1nc2n(Cc3ccc(Cl)nc3)cccc-2c(=O)n1-c1cccc(SC(F)(F)F)c1 [Compound 246, 8-((6-chloropyridin-3-yl)methyl)-3-(3-((trifluoromethyl)thio)phenyl)pyrido[2,3-d]pyrimidine-2,4(3H,8H)-dione]
≥ 70%: all assays above

O=c1nc2n(Cc3cnc(Cl)nc3)cccc-2c(=O)n1-c1ccc2c(c1)OC(F)(F)O2 [Compound 198, 8-((2-chloropyrimidin-5-yl)methyl)-3-(2,2-difluorobenzo[d][1,3]dioxol-5-yl)pyrido[2,3-d]pyrimidine-2,4(3H,8H)-dione]
≥ 70%: all assays above

O=c1nc2n(Cc3cnc(Cl)nc3)cccc-2c(=O)n1-c1ccc(F)c(F)c1 [Compound 120, 8-((2-chloropyrimidin-5-yl)methyl)-3-(3,4-difluorophenyl)pyrido[2,3-d]pyrimidine-2,4(3H,8H)-dione]
≥ 70%: all assays above

O=c1nc2n(Cc3cnc(Cl)nc3)cccc-2c(=O)n1-c1cccc(Cl)c1 [Compound 96, 3-(3-chlorophenyl)-8-((2-chloropyrimidin-5-yl)methyl)pyrido[2,3-d]pyrimidine-2,4(3H,8H)-dione]
≥ 70%: all assays above

O=c1nc2n(Cc3cnc(Cl)nc3)cccc-2c(=O)n1-c1ccc(F)c(Cl)c1 [Compound 154, 3-(3-chloro-4-fluorophenyl)-8-((2-chloropyrimidin-5-yl)methyl)pyrido[2,3-d]pyrimidine-2,4(3H,8H)-dione]
≥ 70%: all assays above

O=c1nc2n(Cc3cnc(Cl)nc3)cccc-2c(=O)n1-c1ccc(F)cc1 [Compound 117, 8-((2-chloropyrimidin-5-yl)methyl)-3-(4-fluorophenyl)pyrido[2,3-d]pyrimidine-2,4(3H,8H)-dione]
≥ 70%: all assays above

O=c1nc2n(Cc3cnc(Cl)nc3)cccc-2c(=O)n1-c1ccc(Br)c(F)c1 [Compound 235, 3-(4-bromo-3-fluorophenyl)-8-((2-chloropyrimidin-5-yl)methyl)pyrido[2,3-d]pyrimidine-2,4(3H,8H)-dione]
≥ 70%: all assays above

O=c1nc2n(Cc3cnc(Cl)s3)cccc-2c(=O)n1-c1ccc(F)c(C(F)(F)F)c1 [Compound 242, 8-((2-chlorothiazol-5-yl)methyl)-3-(4-fluoro-3-(trifluoromethyl)phenyl)pyrido[2,3-d]pyrimidine-2,4(3H,8H)-dione]
≥ 70%: all assays above

O=c1nc2n(Cc3cnc(Cl)s3)cccc-2c(=O)n1-c1cccc(OC(F)(F)F)c1 [Compound 150, 8-((2-chlorothiazol-5-yl)methyl)-3-(3-(trifluoromethoxy)phenyl)pyrido[2,3-d]pyrimidine-2,4(3H,8H)-dione]
≥ 70%: all assays above

O=c1nc2n(Cc3cnc(Cl)nc3)cccc-2c(=O)n1-c1ccc(F)c(Br)c1 [Compound 234, 3-(3-bromo-4-fluorophenyl)-8-((2-chloropyrimidin-5-yl)methyl)pyrido[2,3-d]pyrimidine-2,4(3H,8H)-dione]
≥ 70%: all assays above

O=c1nc2n(Cc3cnc(Cl)nc3)cccc-2c(=O)n1-c1ccc(F)c(C(F)(F)F)c1 [Compound 213, 8-((2-chloropyrimidin-5-yl)methyl)-3-(4-fluoro-3-(trifluoromethyl)phenyl)pyrido[2,3-d]pyrimidine-2,4(3H,8H)-dione]
≥ 70%: all assays above

O=c1nc2n(Cc3cnc(Cl)nc3)cccc-2c(=O)n1-c1ccc(OCC(F)(F)F)cc1 [Compound 216, 8-((2-chloropyrimidin-5-yl)methyl)-3-(4-(2,2,2-trifluoroethoxy)phenyl)pyrido[2,3-d]pyrimidine-2,4(3H,8H)-dione]
≥ 70%: all assays above

O=c1nc2n(Cc3cnc(Cl)s3)cccc-2c(=O)n1-c1ccc(OCC(F)(F)F)cc1 [Compound 243, 8-((2-chlorothiazol-5-yl)methyl)-3-(4-(2,2,2-trifluoroethoxy)phenyl)pyrido[2,3-d]pyrimidine-2,4(3H,8H)-dione]
≥ 70%: all assays above

O=c1nc2n(Cc3cnc(Cl)nc3)cccc-2c(=O)n1-c1ccc(F)cc1F [Compound 207, 8-((2-chloropyrimidin-5-yl)methyl)-3-(2,4-difluorophenyl)pyrido[2,3-d]pyrimidine-2,4(3H,8H)-dione]
≥ 70%: all assays above

O=c1nc2n(Cc3cnc(Cl)nc3)cccc-2c(=O)n1-c1cc(F)cc(C(F)(F)F)c1 [Compound 244, 8-((2-chloropyrimidin-5-yl)methyl)-3-(3-fluoro-5-(trifluoromethyl)phenyl)pyrido[2,3-d]pyrimidine-2,4(3H,8H)-dione]
≥ 70%: all assays above

O=c1nc2n(Cc3cnc(Cl)nc3)cccc-2c(=O)n1-c1cc(F)cc(F)c1 [Compound 140, 8-((2-chloropyrimidin-5-yl)methyl)-3-(3,5-difluorophenyl)pyrido[2,3-d]pyrimidine-2,4(3H,8H)-dione]
≥ 70%: all assays above

O=c1nc2n(Cc3cnc(Cl)s3)cccc-2c(=O)n1-c1ccc2c(c1)OC(F)(F)O2 [Compound 247, 8-((2-chlorothiazol-5-yl)methyl)-3-(2,2-difluorobenzo[d][1,3]dioxol-5-yl)pyrido[2,3-d]pyrimidine-2,4(3H,8H)-dione]
≥ 70%: all assays above

O=c1nc2n(Cc3ccc(Cl)nc3)cccc-2c(=O)n1-c1cccc(OC(F)(F)F)c1 [Compound 123, 8-((6-chloropyridin-3-yl)methyl)-3-(3-(trifluoromethoxy)phenyl)pyrido[2,3-d]pyrimidine-2,4(3H,8H)-dione]
≥ 70%: all assays above
